Measured values taken from US10414811B2, “Protease-resistant lipidated GLP-1 analogs” (MEDIMMUNE LIMITED, priority 2015, dated 2019).
pEC50: −log10 of the molar value. Where two headings read alike, the source gives them in different places. Numbered stars: 1 amine (or outer) side, 2 acyl side, 3 side chain; on linkers, the order of the positions; unused ones are H or OH. Square brackets hold non-standard residues; d marks the D form. Side chains are listed from the residue outwards. Peptide text beside a SMILES is read from it. * marks the point of attachment. γGlu = O=C(O)[C@H](CCC(=O)[*:2])N[*:1]; Palmitoyl = CCCCCCCCCCCCCCCC(=O)*; αMeF = C[C@](N)(Cc1ccccc1)C(=O)O; αMeK = C[C@](N)(CCCCN)C(=O)O; Lauroyl = CCCCCCCCCCCC(=O)*; αMeS = C[C@](N)(CO)C(=O)O; AEEA = NCCOCCOCC(=O)O; Aib = CC(C)(N)C(=O)O

Experiments:
Assay type in all cases: cell-based
[1] = biological target: T1, human GLP-1 receptor (GLP-1R) (Homo sapiens, UniProt P43220); experiment: cAMP assay, human GLP-1R cells; conditions: for EC50: mean of n1 and n2
T1 construct: expressed in transfected cells
In short: (§1)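 Peptide-stimulated cAMP measured by two-step HTRF after a 30 min room-temperature incubation with receptor-expressing cells (hGLP-1R, hGIPR at 1×10^5 cells/ml; hGCGR at 2×10^5 cells/ml). Duplicate dilutions; EC50 from 4-parameter logistic fit of % Delta F.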

[2] = biological target: T2, human glucagon receptor (GCGR) (Homo sapiens, UniProt P47871); experiment: cAMP assay, human GCGR cells
T2 construct: expressed in transfected cells
In short: as §1

[3] = biological target: T3, human glucose-dependent insulinotropic peptide receptor (GIPR) (Homo sapiens, UniProt P48546); experiment: cAMP assay, human GIPR cells
T3 construct: expressed in transfected cells
T3 sequence (P48546 22-466): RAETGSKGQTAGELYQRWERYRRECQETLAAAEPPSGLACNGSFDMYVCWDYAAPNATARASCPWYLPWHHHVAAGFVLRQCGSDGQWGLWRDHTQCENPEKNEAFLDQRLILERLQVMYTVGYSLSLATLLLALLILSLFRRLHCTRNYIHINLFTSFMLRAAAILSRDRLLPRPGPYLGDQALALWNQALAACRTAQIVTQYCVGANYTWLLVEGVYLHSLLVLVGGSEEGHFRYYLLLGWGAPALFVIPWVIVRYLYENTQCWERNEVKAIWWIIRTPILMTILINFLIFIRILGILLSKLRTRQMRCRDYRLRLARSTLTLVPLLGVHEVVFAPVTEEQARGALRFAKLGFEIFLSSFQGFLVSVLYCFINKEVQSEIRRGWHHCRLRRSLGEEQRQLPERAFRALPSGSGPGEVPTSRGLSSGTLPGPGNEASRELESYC
In short: as §1

[4] = cAMP assay, first determination (n1), read-out: Primary assay EC50 GLP-1R n1
[5] = cAMP assay, second determination (n2), read-out: Primary assay EC50 GLP-1R n2
[6] = cAMP assay, first determination (n1), read-out: Primary assay EC50 Gluc-R (n1)
[7] = cAMP assay, second determination (n2), read-out: Primary assay EC50 Gluc-R (n2)
[8] = cAMP assay, first determination (n1), read-out: Primary assay EC50 GIP-R (n1)
[9] = cAMP assay, second determination (n2), read-out: Primary assay EC50 GIP-R (n2)

T2 sequence (P47871 26-477): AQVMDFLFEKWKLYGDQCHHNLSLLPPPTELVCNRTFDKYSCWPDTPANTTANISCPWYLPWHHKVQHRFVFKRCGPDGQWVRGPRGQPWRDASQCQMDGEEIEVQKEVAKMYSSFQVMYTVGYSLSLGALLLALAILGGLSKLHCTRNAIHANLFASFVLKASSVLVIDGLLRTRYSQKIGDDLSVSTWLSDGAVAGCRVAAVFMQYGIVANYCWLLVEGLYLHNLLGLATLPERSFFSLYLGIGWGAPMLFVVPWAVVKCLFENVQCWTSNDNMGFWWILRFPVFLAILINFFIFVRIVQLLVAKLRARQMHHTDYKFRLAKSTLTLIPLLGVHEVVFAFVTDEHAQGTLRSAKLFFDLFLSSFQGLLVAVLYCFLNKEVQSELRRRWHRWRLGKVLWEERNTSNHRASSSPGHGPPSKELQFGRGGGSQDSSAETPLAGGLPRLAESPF
T1 sequence (P43220 24-463): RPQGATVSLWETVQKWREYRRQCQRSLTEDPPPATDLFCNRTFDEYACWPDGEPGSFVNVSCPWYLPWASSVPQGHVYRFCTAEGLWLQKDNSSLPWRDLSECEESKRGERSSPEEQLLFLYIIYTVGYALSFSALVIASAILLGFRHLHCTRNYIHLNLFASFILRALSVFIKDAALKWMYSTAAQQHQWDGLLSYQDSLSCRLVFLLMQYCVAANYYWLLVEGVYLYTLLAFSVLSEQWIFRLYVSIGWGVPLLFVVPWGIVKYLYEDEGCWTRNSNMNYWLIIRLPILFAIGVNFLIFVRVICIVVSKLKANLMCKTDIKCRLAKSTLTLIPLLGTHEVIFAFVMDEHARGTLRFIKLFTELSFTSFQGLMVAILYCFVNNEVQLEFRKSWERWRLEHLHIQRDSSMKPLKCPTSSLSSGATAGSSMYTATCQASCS

Structure (SMILES) | pEC50 [1, 4] | pEC50 [1, 5] | EC50 ([1]; read-out: Mean pM GLP-1R) [pM] | pEC50 [2, 6] | pEC50 [2, 7] | pEC50 [3, 8] | pEC50 [3, 9] | EC50 ([1]; tris-lipidated peptides, read-out: Primary assay EC50 Mean pM GLP-1R) [pM] | pEC50 ([1]; tris-lipidated peptides, replicate n1, read-out: Primary assay EC50 GLP-1R n1) | pEC50 ([1]; tris-lipidated peptides, replicate n2, read-out: Primary assay EC50 GLP-1R n2) | pEC50 ([2]; tris-lipidated peptides, second replicate, read-out: Primary assay EC50 Gluc-R (n2)) | pEC50 ([3]; tris-lipidated peptides, first replicate, read-out: Primary assay EC50 GIP-R (n1))
CC[C@H](C)[C@H](NC(=O)[C@H](Cc1ccccc1)NC(=O)[C@H](CCC(=O)O)NC(=O)[C@H](CCCCN)NC(=O)[C@H](C)NC(=O)[C@H](C)NC(=O)[C@H](CCC(N)=O)NC(=O)CNC(=O)[C@H](CCC(=O)O)NC(=O)[C@H](CC(C)C)NC(=O)[C@H](Cc1ccc(O)cc1)NC(=O)[C@H](CO)NC(=O)[C@H](CO)NC(=O)[C@@H](NC(=O)[C@H](CC(=O)O)NC(=O)C(C)(C)NC(=O)[C@@H](NC(=O)[C@H](Cc1ccccc1)NC(=O)[C@@H](NC(=O)CNC(=O)[C@H](CCC(=O)O)NC(=O)C(C)(C)NC(=O)[C@@H](N)Cc1c[nH]cn1)[C@@H](C)O)[C@@H](C)O)C(C)C)C(=O)N[C@@H](C)C(=O)N[C@@H](Cc1c[nH]c2ccccc12)C(=O)N[C@@H](CC(C)C)C(=O)N[C@H](C(=O)N[C@@H](CCCCN)C(=O)NCC(=O)N[C@@H](CCCNC(=N)N)C(N)=O)C(C)C [compound 20] (H-H[Aib]EGTFT[Aib]DVSSYLEGQAAKEFIAWLVKGR-NH2) | 7.82 | 7.92 | 13500 | ≤ 6.54 | ≤ 6.54 | ≤ 6.54 | ≤ 6.54 | – | – | – | – | –
CCCCCCCCCCCC(=O)N[C@@H](CCC(=O)NCCOCCOCC(=O)NCCOCCOCC(=O)NCCCC[C@H](NC(=O)CNC(=O)[C@H](CCC(=O)O)NC(=O)[C@H](CC(C)C)NC(=O)[C@H](Cc1ccc(O)cc1)NC(=O)[C@H](CO)NC(=O)[C@H](CO)NC(=O)[C@H](CCCCNC(=O)COCCOCCNC(=O)COCCOCCNC(=O)CC[C@H](NC(=O)CCCCCCCCCCC)C(=O)O)NC(=O)[C@H](CC(=O)O)NC(=O)[C@H](CO)NC(=O)[C@@H](NC(=O)[C@](C)(Cc1ccccc1)NC(=O)[C@H](CO)NC(=O)CNC(=O)[C@H](CCC(=O)O)NC(=O)C(C)(C)NC(=O)[C@@H](N)Cc1c[nH]cn1)[C@@H](C)O)C(=O)N[C@@H](C)C(=O)N[C@@H](C)C(=O)N[C@@](C)(CCCCN)C(=O)N[C@@H](CCC(=O)O)C(=O)N[C@@H](Cc1ccccc1)C(=O)N[C@H](C(=O)N[C@@H](CCCCNC(=O)COCCOCCNC(=O)COCCOCCNC(=O)CC[C@H](NC(=O)CCCCCCCCCCC)C(=O)O)C(=O)N[C@@H](Cc1ccccc1)C(=O)N[C@H](C(=O)N[C@H](C(=O)N[C@@H](CCC(=O)O)C(=O)NCC(=O)NCC(N)=O)C(C)C)C(C)C)[C@@H](C)CC)C(=O)O [compound 440] (H-H[Aib]EGS[αMeF]TSDK([AEEA-AEEA-γGlu-Lauroyl])SSYLEGK([AEEA-AEEA-γGlu-Lauroyl])AA[αMeK]EFIK([AEEA-AEEA-γGlu-Lauroyl])FVVEGG-NH2; N-terminus assumed) | – | – | – | – | – | – | – | 130 | 10.01 | 9.79 | 7.71 | 7.71
CCCCCCCCCCCC(=O)NCCCCCC(=O)NCCCC[C@H](NC(=O)[C@@H](NC(=O)[C@@H](NC(=O)[C@](C)(Cc1ccccc1)NC(=O)[C@H](C)NC(=O)[C@@H](NC(=O)[C@](C)(Cc1ccccc1)NC(=O)[C@H](CCC(=O)O)NC(=O)[C@](C)(CCCCN)NC(=O)[C@H](C)NC(=O)[C@H](C)NC(=O)[C@H](CCC(=O)O)NC(=O)CNC(=O)[C@H](CCC(=O)O)NC(=O)[C@H](CC(C)C)NC(=O)[C@](C)(Cc1ccccc1)NC(=O)[C@H](CO)NC(=O)[C@](C)(CO)NC(=O)[C@@H](NC(=O)[C@H](CC(=O)O)NC(=O)[C@H](CO)NC(=O)[C@@H](NC(=O)[C@](C)(Cc1ccccc1)NC(=O)[C@H](CO)NC(=O)CNC(=O)[C@H](CCC(=O)O)NC(=O)C(C)(C)NC(=O)[C@@H](N)Cc1c[nH]cn1)[C@@H](C)O)C(C)C)[C@@H](C)CC)C(C)C)C(C)C)C(=O)NCC(=O)NCC(N)=O [compound 167] | 10.89 | 11.16 | 10 | ≤ 7.54 | ≤ 7.54 | ≤ 7.54 | ≤ 7.54 | – | – | – | – | –
CCCCCCCCCCCC(=O)NCCCCCC(=O)NCCCC[C@H](NC(=O)[C@H](C)NC(=O)[C@H](C)NC(=O)[C@H](CCC(=O)O)NC(=O)CNC(=O)[C@H](CCC(=O)O)NC(=O)[C@H](CC(C)C)NC(=O)[C@](C)(Cc1ccccc1)NC(=O)[C@H](CO)NC(=O)[C@](C)(CO)NC(=O)[C@@H](NC(=O)[C@H](CC(=O)O)NC(=O)[C@H](CO)NC(=O)[C@@H](NC(=O)[C@](C)(Cc1ccccc1)NC(=O)[C@H](CO)NC(=O)CNC(=O)[C@H](CCC(=O)O)NC(=O)C(C)(C)NC(=O)[C@@H](N)Cc1c[nH]cn1)[C@@H](C)O)C(C)C)C(=O)N[C@@H](CCC(=O)O)C(=O)N[C@@](C)(Cc1ccccc1)C(=O)N[C@H](C(=O)N[C@@H](C)C(=O)N[C@@](C)(Cc1ccccc1)C(=O)N[C@H](C(=O)N[C@H](C(=O)N[C@@](C)(CCCCN)C(=O)NCC(=O)NCC(N)=O)C(C)C)C(C)C)[C@@H](C)CC [compound 131] | 10.85 | 11.00 | 11.7 | ≤ 7.54 | ≤ 7.54 | ≤ 7.54 | ≤ 7.54 | – | – | – | – | –

Now from value to compound:

pEC50 [1, 4] | pEC50 [1, 5] | EC50 ([1]; read-out: Mean pM GLP-1R) [pM] | pEC50 [2, 6] | pEC50 [2, 7] | pEC50 [3, 8] | pEC50 [3, 9] | EC50 ([1]; tris-lipidated peptides, read-out: Primary assay EC50 Mean pM GLP-1R) [pM] | pEC50 ([1]; tris-lipidated peptides, replicate n1, read-out: Primary assay EC50 GLP-1R n1) | pEC50 ([1]; tris-lipidated peptides, replicate n2, read-out: Primary assay EC50 GLP-1R n2) | pEC50 ([2]; tris-lipidated peptides, second replicate, read-out: Primary assay EC50 Gluc-R (n2)) | pEC50 ([3]; tris-lipidated peptides, first replicate, read-out: Primary assay EC50 GIP-R (n1)) | Structure (SMILES)
8.31 | 8.77 | 3260 | ≤ 7.05 | ≤ 7.57 | ≤ 7.05 | ≤ 7.57 | – | – | – | – | – | CCCCCCCCCCCCCCCC(=O)N[C@@H](CCC(=O)NCCCC[C@H](NC(=O)CNC(=O)CNC(=O)[C@](C)(CCCCN)NC(=O)[C@@H](NC(=O)[C@@H](NC(=O)[C@](C)(Cc1ccccc1)NC(=O)[C@H](C)NC(=O)[C@@H](NC(=O)[C@](C)(Cc1ccccc1)NC(=O)[C@H](CCC(=O)O)NC(=O)[C@](C)(CCCCN)NC(=O)[C@H](C)NC(=O)[C@H](C)NC(=O)[C@H](CCC(=O)O)NC(=O)CNC(=O)[C@H](CCC(=O)O)NC(=O)[C@H](CC(C)C)NC(=O)[C@](C)(Cc1ccccc1)NC(=O)[C@H](CO)NC(=O)[C@](C)(CO)NC(=O)[C@@H](NC(=O)[C@H](CC(=O)O)NC(=O)[C@H](CC(=O)O)NC(=O)[C@@H](NC(=O)[C@](C)(Cc1ccccc1)NC(=O)[C@H](CO)NC(=O)CNC(=O)[C@H](CCC(=O)O)NC(=O)C(C)(C)NC(=O)[C@@H](N)Cc1c[nH]cn1)[C@@H](C)O)C(C)C)[C@@H](C)CC)C(C)C)C(C)C)C(N)=O)C(=O)O [compound 35] (H-H[Aib]EGS[αMeF]TDDV[αMeS]S[αMeF]LEGEAA[αMeK]E[αMeF]IA[αMeF]VV[αMeK]GGK([γGlu-Palmitoyl])-NH2; N-terminus assumed)
9.62 | – | – | ≤ 7.59 | ≤ 7.59 | ≤ 7.59 | ≤ 7.59 | – | – | – | – | – | CC[C@H](C)[C@H](NC(=O)[C@](C)(Cc1ccccc1)NC(=O)[C@H](CCC(=O)O)NC(=O)[C@H](CCCCNC(=O)CC[C@H](NC(=O)CC[C@H](NC(=O)CC[C@H](NC(=O)CCCCCCCCCCCCCCCCC(=O)O)C(=O)O)C(=O)O)C(=O)O)NC(=O)[C@H](C)NC(=O)[C@H](C)NC(=O)[C@H](CCC(=O)O)NC(=O)CNC(=O)[C@H](CCC(=O)O)NC(=O)[C@H](CC(C)C)NC(=O)[C@](C)(Cc1ccccc1)NC(=O)[C@H](CO)NC(=O)[C@](C)(CO)NC(=O)[C@@H](NC(=O)[C@H](CC(=O)O)NC(=O)[C@H](CO)NC(=O)[C@@H](NC(=O)[C@](C)(Cc1ccccc1)NC(=O)[C@H](CO)NC(=O)CNC(=O)[C@H](CCC(=O)O)NC(=O)C(C)(C)NC(=O)[C@@H](N)Cc1c[nH]cn1)[C@@H](C)O)C(C)C)C(=O)N[C@@H](C)C(=O)N[C@@](C)(Cc1ccccc1)C(=O)N[C@H](C(=O)N[C@H](C(=O)N[C@@](C)(CCCCN)C(=O)NCC(=O)NCC(N)=O)C(C)C)C(C)C [compound 157]
10.41 | 10.51 | 34.7 | ≤ 7.55 | ≤ 7.55 | ≤ 7.55 | ≤ 7.55 | – | – | – | – | – | CCCCCCCCCCCCCCCCCC(=O)NCCOCCOCC(=O)NCCCC[C@H](NC(=O)[C@H](C)NC(=O)[C@H](C)NC(=O)[C@H](CCC(=O)O)NC(=O)CNC(=O)[C@H](CCC(=O)O)NC(=O)[C@H](CC(C)C)NC(=O)[C@](C)(Cc1ccccc1)NC(=O)[C@H](CO)NC(=O)[C@](C)(CO)NC(=O)[C@@H](NC(=O)[C@H](CC(=O)O)NC(=O)[C@H](CO)NC(=O)[C@@H](NC(=O)[C@](C)(Cc1ccccc1)NC(=O)[C@H](CO)NC(=O)CNC(=O)[C@H](CCC(=O)O)NC(=O)C(C)(C)NC(=O)[C@@H](N)Cc1c[nH]cn1)[C@@H](C)O)C(C)C)C(=O)N[C@@H](CCC(=O)O)C(=O)N[C@@](C)(Cc1ccccc1)C(=O)N[C@H](C(=O)N[C@@H](C)C(=O)N[C@@](C)(Cc1ccccc1)C(=O)N[C@H](C(=O)N[C@H](C(=O)N[C@@](C)(CCCCN)C(=O)NCC(=O)NCC(N)=O)C(C)C)C(C)C)[C@@H](C)CC [compound 152]
